The values below come from patent US6159501A, “Modified release multiple-units dosage composition for release of opioid compounds” (Nycomed Danmark A/S, priority 1996, dated 2000).

For data set [1] the following is noted: cited from earlier work.
Data set [2] in a line: Test 3 (PDMO-018): adverse events. How it is done:
Volunteers were asked to report any changes in normal health to the investigator. The investigator recorded in the CRFs the event, date and time for onset and cessation, frequency, severity, outcome, causality, classification and any action taken.
Further a urine sample was screened for drug abuse and pregnancy test was performed for female volunteers. If negative drugs of abuse and pregnancy test the volunteers were challenged in the first period only with a direct i.v. injection of about 0.5 ml naloxone 0.4 mg/ml (Narcan®).

`CN1CC[C@]23c4c5ccc(O)c4O[C@H]2[C@@H](O[C@@H]2O[C@H](C(=O)O)[C@@H](O)[C@H](O)[C@H]2O)C=C[C@H]3[C@H]1C5` [morphine-6-glucuronide]: in data set [1] (in vivo), the “half-life, comparison” value is “longer half-life”.
For `O=C1CC[C@@]2(O)[C@H]3Cc4ccc(O)c5c4[C@@]2(CCN3CC2CC2)[C@H]1O5` [naltrexone], in data set [2], the “adverse events (number)” value was 13 AEs.
On to `CN1CC[C@]23c4c5ccc(O)c4O[C@H]2[C@@H](O)C=C[C@H]3[C@H]1C5` [morphine], for which the “average duration of action for the first single dose” value in data set [1] (10 mg of oral, i.m. or s.c. morphine) was 4 to 5 h.
